Assay results published in US9463252B2, “Auristatin drug linker conjugates” (priority 2008, dated 2016).

Experiments:
786-O = assay: Cytotoxicity of Auristatin-Peptide-h1F6 conjugates, resazurin assay; assay type: cell-based, human
Text: (§1) The conjugates contain approximately 4 drugs per antibody.

MCF-7 = assay: Cytotoxicity of Auristatin-Peptide-anti-LIV-1 conjugates on LIV-1 positive cells; assay type: cell-based; conditions: Table 11, ~4 drugs per antibody
Protocol: (§2) Following the procedure described as Examples 57 and 58, the activities of Auristatin-Peptide-cAC10 conjugates were evaluated on CD30^+ cells, such as Karpas 299, L428, and L540cy. The activities of Auristatin-Peptide-hBU12 conjugates were evaluated on CD19^+ cells such as Ramos, SUDHL-4, and ARH-77. The activities of Auristatin-Peptide-anti-LIV-1 conjugates were evaluated on LIV-1 positive cell lines MCF-7 and SKOV-3. The activities of Auristatin-Peptide-BR96 conjugates were evaluated on Le^y positive cells H3396, RCA, and L2987. All conjugates contain approximately 4 drugs per antibody.

SKOV-3 = assay: as above; assay type: cell-based; conditions: Table 11, ~4 drugs per antibody
Protocol: as §2

[1] = tested on: DoHH-2 follicular B-cell lymphoma subcutaneous model; assay: In vivo efficacy of hBU12 conjugates in lymphoma xenograft model; set-up: species or system mouse; conditions: FIG. 16, q4d×4 at 3 mg/kg, SCID mice
Protocol: The efficacies of Auristatin-Dipeptide hBU12 conjugates with the aryl and alkyl-maleimide Stretcher units were evaluated in a DoHH-2 follicular B-cell lymphoma subcutaneous model. Auristatin-Dipeptide-hBU12 conjugates with average of 4 drug moieties per antibody were used. DoHH-2 cells were implanted subcutaneously into immunodeficient SCID mice (5×10^6 cells per mouse). […] Treatment was initiated when average size of tumors reached 100 mm^3; the treatment schedule was q4d×4 at 3 mg/kg.

RCA = assay: Cytotoxicity of Auristatin-Peptide-BR96 conjugates on Le^y positive cells; assay type: cell-based; conditions: Table 11, ~4 drugs per antibody
Protocol: as §2

L2987 = assay: as above; assay type: cell-based; conditions: Table 11, ~4 drugs per antibody
Protocol: as §2

H3396 = assay: as above; assay type: cell-based; conditions: Table 11, ~4 drugs per antibody
Protocol: as §2

SUDHL-4 = assay: Cytotoxicity of Auristatin-Peptide-hBU12 conjugates on CD19+ cells; assay type: cell-based; conditions: Table 11, ~4 drugs per antibody
Protocol: as §2

ARH-77 = assay: as above; assay type: cell-based; conditions: Table 11, ~4 drugs per antibody
Protocol: as §2

Ramos = assay: as above; assay type: cell-based; conditions: Table 11, ~4 drugs per antibody
Protocol: as §2

L540cy = assay: Cytotoxicity of Auristatin-Peptide-cAC10 conjugates on CD30+ cells; assay type: cell-based, human; conditions: Table 11, ~4 drugs per antibody
Protocol: (§3) Following the procedure described in Example 57, Auristatin-Dipeptide-cAC10 antibody conjugates were evaluated on CD30+ positive cell lines, Karpas 299, L428 and L540cy. In addition, a control conjugate, cAC10-vc-PABC-MMAF, was used. […] The conjugates contain approximately 4 drugs per antibody.
as §2

Karpas 299 = assay: as above; assay type: cell-based, human; conditions: Table 11, ~4 drugs per antibody
Protocol: as §3, §2

[2] = tested on: L540cy Hodgkin's lymphoma subcutaneous model; assay: In vivo efficacy of cAC10 conjugates in lymphoma xenograft model; set-up: species or system mouse; conditions: FIG. 17, q4d×3 at 1 mg/kg, SCID mice
Protocol: The efficacy of selected Auristatin-Dipeptide-cAC10 conjugates having Stretcher units with aryl or alkyl maleimides were evaluated in L540cy Hodgkin's lymphoma subcutaneous model. Auristatin-Dipeptide-cAC10 conjugates with average of 4 drug moieties per antibody were used. L540cy cells were implanted subcutaneously into immunodeficient SCID mice (5×10^6 cells per mouse). […] Treatment was initiated when average size of tumors reached 100 mm^3. The treatment schedule was q4d×3 at 1 mg/kg.

Caki-2 = assay: Cytotoxicity of Auristatin-Peptide-h1F6 conjugates, resazurin assay; assay type: cell-based
Protocol: as §1
Following the procedure described as Examples 57 and 58, Auristatin-Peptide-h1F6 conjugates were evaluated on CD70^+ cell, such as 786-O, Caki-1, Caki-2, and L428. Conjugates contain approximately 4 drugs per antibody.

HCT-116 (CD70−) = assay: Cytotoxicity of Auristatin-Peptide-h1F6 conjugates, CD70- control cell line; assay type: cell-based
Text: as §1

L428 [3] = assay: Cytotoxicity of Auristatin-Peptide-cAC10 conjugates on CD30+ cells; assay type: cell-based; conditions: Table 11, ~4 drugs per antibody
Protocol: as §3, §2

L428 [4] = assay: Cytotoxicity of Auristatin-Peptide-h1F6 conjugates, resazurin assay; assay type: cell-based
Text: as §1

Caki-1 = assay: as above; assay type: cell-based
Text: as §1

[5] = tested on: 786-O (renal cell) xenografts; conditions: mouse, ip
Protocol: The efficacy of AF-Dipeptide-h1F6 conjugates were evaluated in 786-O (renal cell) xenografts. AF-Dipeptide-h1F6 conjugates with an average of 4 drug moieties per antibody were used. 786-O cells were implanted subcutaneously into immunodeficient mice (5×10^6 cells per mouse). Tumor volumes are calculated using the formula (0.5×L×W^2) where L and W are the longer and shorter of two bidirectional measurements.
In a second study, the efficacies of additional Auristatin-Dipeptide-h1F6 conjugates were evaluated in 786-O (renal cell) xenografts. Auristatin-Dipeptide-h1F6 conjugates with an average of 4 drug moieties per antibody were used. 786-O cells were implanted subcutaneously into immunodeficient mice (5×10^6 cells per mouse). Tumor volumes are calculated using the formula (0.5×L×W^2), where L and W are the longer and shorter of two bidirectional measurements.

U251 = assay: Cytotoxicity of Auristatin-Peptide-h1F6 conjugates, resazurin assay; assay type: cell-based; conditions: Table 4, ~4 drugs/Ab
Text: as §1

[6] = tested on: CD70+ positive cell lines; conditions: h1F6 conjugates, ~4 drugs/Ab
Protocol: Cytotoxicity assays are usually carried out for 96 hours after addition of test compounds. Fifty μl of resazurin dye may be added to each well during the last 4 to 6 hours of the incubation to assess viable cells at the end of culture. Dye reduction can be determined by fluorescence spectrometry using the excitation and emission wavelengths of 535 nm and 590 nm, respectively. For analysis, the extent of resazurin reduction by the treated cells can be compared to that of the untreated control cells.

[7] = tested on: CD30+, CD19+, LIV-1 positive and Le^y positive cells; assay: In vitro activity of conjugates with cAC10, hBU12, anti-LIV-1 and BR96, overall statements; assay type: cell-based; conditions: conjugates with cAC10, hBU12, Anti-LIV-1, BR96; Table 11
Protocol: as §2

[8] = Table 5, h1F6 conjugates, ~4 drugs/Ab
[9] = Table 10, h1F6-Drug(4) conjugates, aryl or alkyl maleimides
[10] = Table 4, h1F6 conjugates, ~4 drugs/Ab

| Substance | IC50 786-O (786-O; [8]) [µg/mL] | IC50 786-O (786-O; [9]) [µg/mL] | IC50 MCF-7 (MCF-7) | IC50 SKOV-3 (SKOV-3) | IC50 RCA (RCA) [µg/mL] | IC50 L2987 (L2987) [µg/mL] | IC50 H3396 (H3396) [µg/mL] | IC50 SUDHL-4 (SUDHL-4) | IC50 ARH-77 (ARH-77) | IC50 Ramos (Ramos) | IC50 L540cy (L540cy) [µg/mL] | IC50 Karpas 299 (Karpas 299) [µg/mL] | IC50 Caki-2 (Caki-2; [8]) [µg/mL] | IC50 Caki-2 (Caki-2; [9]) [µg/mL] | IC50 HCT-116 (CD70−) (HCT-116 (CD70−); Table 5, ~4 drugs/Ab) [µg/mL] | IC50 L428 (L428 [3]) | IC50 L428 (L428 [4]; [8]) [ng/mL] | IC50 L428 (L428 [4]; [9]) [ng/mL] | IC50 Caki-1 (Caki-1; [8]) [ng/mL] | IC50 Caki-1 (Caki-1; [9]) [ng/mL] | other results |
| --- | --- | --- | --- | --- | --- | --- | --- | --- | --- | --- | --- | --- | --- | --- | --- | --- | --- | --- | --- | --- | --- |
| AM-Asparagine-(D)Lysine-diaminoethane-propionyl maleimide [AM-Asn-(D)Lys] | 0.02 | 0.018 | 24 ng/mL | 7600 ng/mL | 8.362 | 0.506 | 0.037 | >10,000 ng/mL | 49 ng/mL | 1 ng/mL | 0.031 | 0.011 | 0.047 | 0.026 | >1 | 0.6 ng/mL | 26 | 29 | 20 | 16 | in vivo efficacy, tumor volume (in words) [1]: more potent than corresponding AW-Met-(D)Lys conjugates; in vivo efficacy, tumor volume (in words) [2]: more potent than corresponding AW-Met-(D)Lys conjugates |
| AF-Proline-(D)Lysine-diaminoethane-propionyl maleimide [AF-Pro-(D)Lys] | – | – | – | – | – | – | – | – | – | – | – | – | – | – | – | – | – | – | – | – | in vivo efficacy, tumor volume (in words) [5]: inactive; IC50 HCT-116 (CD70−) (HCT-116 (CD70−); Table 4, ~4 drugs/Ab): >1 µg/mL; IC50 U251 (U251): 5.012 µg/mL; IC50 L428 (L428 [4]; [10]): >10,000 ng/mL; IC50 Caki-1 (Caki-1; [10]): >10,000 ng/mL; in vitro activity on CD70+ cells (in words) [6]: largely inactive |
| AW-Methionine-(D)Lysine-diaminoethane-propionyl maleimide [AW-Met-(D)Lys] | 0.02 | 0.017 | >10,000 ng/mL | >10,000 ng/mL | 5.217 | 0.422 | 0.146 | >10,000 ng/mL | >10,000 ng/mL | >10,000 ng/mL | 0.017 | 0.011 | 0.037 | 0.018 | >1 | ~10,000 ng/mL | >1000 | >1000 | 22 | 19 | in vitro potency (in words) [7]: less active |
